# Reference: paper PMC7277860, “Viridistratins A−C, Antimicrobial and Cytotoxic Benzo[j]fluoranthenes from Stromata of Annulohypoxylon viridistratum (Hypoxylaceae, Ascomycota)” (Biomolecules, 2020)
# What was measured:
# Test in all cases: Cytotoxicity assay (MTT)
# Format in all cases: cell-based
# [1] = tested on: KB 3.1 (human endocervical adenocarcinoma); details: 5 days
# Description: (§1) Compounds 1−5 were dissolved as described in the previous section. The cytotoxicity assay was initially performed against the cell lines L929 (mouse fibroblasts), as well as KB 3.1 (human papillomavirus-related endocervical adenocarcinoma), as described previously. A detailed protocol, as well as sources of the cell lines, is given in the Supporting Information.
# (§2) After incubating the cell lines with a serial dilution of the test compounds (final range: 37 to 0.6 × 10^−3 µg/mL) for five days, the cells were dyed using 3-(4,5-dimethyl-2-thiazolyl)-2,5-diphenyl-2H-tetrazolium bromide (MTT), which is only converted to its purple formazan derivative by living cells. Then, the intensity of the purple derivative in relation to cells without additive (set to 100% viability) for each concentration of a test compound was quantified. For this, the absorption at 595 nm was measured using a microplate reader to calculate the percentage of cell viability. From this, the half-maximum inhibitory concentration (IC50, in µM) was calculated.
# (§3) Protocol: Cytotoxicity Assay
# (§4) The ass ay w as co nducted i n 9 6-well flat-bottom mi crotiter plates using the parameters summarised i n Tabl e S 2 and as described in [S2].
# (§5) Cell lines L929 and KB 3.1 were incubated at 37 °C under 10 % CO2 in Gibco™ DMEM medium (Thermo Fisher Scientific, Waltham, MA, USA) supplemented with 10 % FBS. A microtiter plate was filled with 120 µL of this suspension (50,000/mL) in each well.
# (§6) Seperately, another microtiter plate was filled with 100 µL of growth medium in each well. Then, 50 µL of the test compound sol utions (1 mg/mL) were given to wells of the first column in two replicates (one compound per row). C ell s wi thout addi ti ves, Me O H, and MeOH: DMSO 9+1 were used as negative controls. Starting from the first column, 50 µL of the solutions were gradually transferred to the ne xt col umn, the conte nts thoroughl y mi xed, and 50 µ L transferred to the following column. This created a serial dilution of the test compounds r anging from 333 µg/mL to 1.9 ×10−3 µg/mL. The remai ni ng 50 µL after column twelve were discarded. From this microtiter plate, 60 µL of the sol utions from 111 µg/ mL to 1.9×10−3 µg/mL were given to the first plate containing 120 µL of the cel l suspens i ons (i.e. the hi ghest concentrati on 333 µg/mL was not used). T his resulted i n fi nal compound concent rati ons rangi ng from […]
# (§7) After 5 days of incubation under the aforeme ntioned i ncubati on condi ti ons, the half maximum inhibitory concentrati ons (IC 50) were determined using a colorimetric tetrazolium dye MTT assay [S3].
# (§8) For this, 20 µL of a 5 mg/mL solution of 3-( 4 ,5 -dimethyl-2-thi azo l yl)-2 ,5 -di phenyl -2H-tetrazolium bromide (MTT) w ere added to each well and incubated for two hours at 37 °C. Then, the microtiter plate was centrifuged (3,000 r p m, 5 mi n) and the supernat ant remo ved by ho l di ng the pl ate upsi de-do wn and gentle shaking. Afterwards, the wells were washed using 100 µL of phosph ate buffered saline (PBS).
# (§9) The plate was again centrifuged and the supernatant removed as described before. Then, 100 µL of an isopropanol:HCl solution (1L i sopropanol+4 mL HCl 37 % w/v) were added to the wells. After i ncubati ng fo r 10 mi n at ambi ent te mperature, the a bso r pti o n of the well s at 595 nm was measured wi th an I nfi ni te ® 200 Pro microplate reader (TECAN, Männedorf, Schweiz).
# (§10) The absorption values of the cells without additives were averaged and set to 100 % cell viability.
# (§11) Then, t he me ans of absorption of the two compound replicates were set in relation to the blank media.
# These percentage values were plotted a gainst the concentration range (37 µg/mL to 0.6×10 −3 µg/mL).
# The IC50 val ue w as read from the plot ( i n µg/mL) and the uni ts conversed to µM.
# If effects were observed wi th cell lines L929 and KB 3.1 (IC50 < 50 µM), the other cell lines were tested using the same protocol.
# Table S2: Cytotoxicity assay experiment parameters cell line type No. growth medium […]
# [2] = tested on: A431 (human squamous carcinoma); details: Homo sapiens, A-431, 120 h, A431, 5 days, value in µg/mL, read-out: half-maximum inhibitory concentration (IC50)
# Description: as §1, §2
# (§12) If an inhibition of cell viability with an IC50 < 50 µM was observed, further cell lines were subjected to the test compounds: PC-3 (human prostate adenocarcinoma), SK-OV-3 (human ovary adenocarcinoma), MCF-7 (human breast adenocarcinoma), A431 (human squamous carcinoma) and A549 (human lung carcinoma).
# as §3, §4, §5, §6, §7, §8, §9, §10, §11
# (§13) These percentage values were plotted a gainst the concentration range (37 µg/mL to 0.6×10 −3 µg/mL). […]
# [3] = tested on: A549 (human lung carcinoma); details: Homo sapiens, 120 h, A549, 5 days, value in µg/mL, read-out: half-maximum inhibitory concentration (IC50)
# Description: as §1, §2, §12, §3, §4, §5, §6, §7, §8, §9, §10, §11, §13
SMILES,IC50 [1] [µM],IC50 [2] [µg/mL],IC50 [3] [µg/mL]
"COc1cccc2c3c(ccc12)-c1ccc(O)c2c(OC)ccc-3c12 [Compound 3, viridistratin C]",85.4,–,–
"COc1cccc2c3c(ccc12)-c1ccc(O)c2c(O)ccc-3c12 [Compound 2, viridistratin B]",–,0.34,0.45
